Measured values from patent publication US20260250318A1, “COMPOSITIONS AND METHODS FOR CROSSING THE BLOOD BRAIN BARRIER” (VOYAGER THERAPEUTICS, INC., priority 2022, published 2026).

Test system: brain
Experiment: Maturation of TTM-001 capsid, NGS enrichment in brain of CD-1 Outbred mice
Type: in vivo
Conditions: NGS fold-enrichment of TTM-001 matured AAV capsid variants in the brain of CD-1 Outbred mice; intravenous 1.0×10^12 VG/dose; 14 days in life; RNA; relative to non-matured TTM-001 control
In short: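 Pooled matured TTM-001 or TTM-002 capsid libraries (loop IV region randomized by triple-codon or low-frequency point mutagenesis) dosed IV via tail vein at 1.0×10^12 VG/dose to three female CD-1 mice. Brain RNA taken after 14 days; RT-PCR and NGS gave fold enrichment versus parent TTM-001 or TTM-002 control.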

In the case of KTINGSGSPHSTVWNQQT, the “Fold enrichment over TTM-001” value is reported as 2.196 fold.
For KTINGSGSPHSTWLNQQT, the “Fold enrichment over TTM-001” value was 3.583 fold.
In the case of KTINGSGSPHSTWTNQQT, the “Fold enrichment over TTM-001” value is reported as 2.307 fold.
In the case of KTINGSGSPHSVFLNQQT, the “Fold enrichment over TTM-001” value is reported as 2.069 fold.
For KTINGSGSPHSVLFNQQT, the “Fold enrichment over TTM-001” value was 2.194 fold.
KTINGSGSPHSVSWNQQT was tested, and the “Fold enrichment over TTM-001” value was 2.223 fold.
With KTINGSGSPHSVYLNQQT the “Fold enrichment over TTM-001” value was 4.426 fold.
KTINGSGSPHSVYRNQQT was tested, and the “Fold enrichment over TTM-001” value was 2.432 fold.
KTINGSGSPHSWGSNQQT was tested, and the “Fold enrichment over TTM-001” value was 2.473 fold.
KTINGSGSPHSWLQNQQT was tested, and the “Fold enrichment over TTM-001” value was 2.665 fold.
For KTINGSGSPHSWLSNQQT, the “Fold enrichment over TTM-001” value was 3.495 fold.
For KTINGSGSPHSWSLNQQT, the “Fold enrichment over TTM-001” value was 2.523 fold.
KTINGSGSPHSWTQNQQT was tested, and the “Fold enrichment over TTM-001” value was 2.084 fold.
In the case of KTINGSGSPHSYLINQQT, the “Fold enrichment over TTM-001” value is reported as 2.650 fold.
In the case of KTINGSGSPHSYLLNQQT, the “Fold enrichment over TTM-001” value is reported as 2.147 fold.
For KTINGSGSPHSYLRNQQT, the “Fold enrichment over TTM-001” value was 4.566 fold.
KTINGSGSPHSYRPNQQT was tested, and the “Fold enrichment over TTM-001” value was 3.095 fold.
In the case of KTINGSGSPHSYSRNQQT, the “Fold enrichment over TTM-001” value is reported as 2.196 fold.
KTINGSGSPHSYVRNQQT was tested, and the “Fold enrichment over TTM-001” value was 2.339 fold.
KTINGSGSPHTKWQNQQT was tested, and the “Fold enrichment over TTM-001” value was 2.222 fold.
In the case of KTINGSGSPHTLFQNQQT, the “Fold enrichment over TTM-001” value is reported as 2.136 fold.
For KTINGSGSPHTLWQNQQT, the “Fold enrichment over TTM-001” value was 2.168 fold.
For KTINGSGSPHTLYQNQQT, the “Fold enrichment over TTM-001” value was 3.117 fold.
For KTINGSGSPHTRRQNQQT, the “Fold enrichment over TTM-001” value was 3.350 fold.
In the case of KTINGSGSPHTWLQNQQT, the “Fold enrichment over TTM-001” value is reported as 2.397 fold.
In the case of KTINGSGSPHTWSQNQQT, the “Fold enrichment over TTM-001” value is reported as 2.011 fold.
For KTINGSGSPHTWTQNQQT, the “Fold enrichment over TTM-001” value was 2.045 fold.
In the case of KTINGSGSPHVLFQNQQT, the “Fold enrichment over TTM-001” value is reported as 2.203 fold.
KTINGSGSPHVLWQNQQT was tested, and the “Fold enrichment over TTM-001” value was 4.533 fold.
In the case of KTINGSGSPHVRRQNQQT, the “Fold enrichment over TTM-001” value is reported as 4.114 fold.
With KTINGSGSPHVTWQNQQT the “Fold enrichment over TTM-001” value was 2.281 fold.
With KTINGSGSPHWLAQNQQT the “Fold enrichment over TTM-001” value was 3.192 fold.
KTINGSGSPHWSLQNQQT was tested, and the “Fold enrichment over TTM-001” value was 2.389 fold.
With KTINGSGSPHWSVQNQQT the “Fold enrichment over TTM-001” value was 2.138 fold.
KTINGSGSPHWVSQNQQT was tested, and the “Fold enrichment over TTM-001” value was 2.007 fold.
For KTINGSGSPHYLLQNQQT, the “Fold enrichment over TTM-001” value was 2.011 fold.
With KTINGSGSPHYLVQNQQT the “Fold enrichment over TTM-001” value was 3.819 fold.
For KTINGSGTPHSKAQNQQT, the “Fold enrichment over TTM-001” value was 2.259 fold.
KTINGSHSPHRKAQNQQT was tested, and the “Fold enrichment over TTM-001” value was 2.028 fold.
KTINGSISPHFVAQNQQT was tested, and the “Fold enrichment over TTM-001” value was 2.006 fold.
With KTINGSKSPHFKAQNQQT the “Fold enrichment over TTM-001” value was 3.285 fold.
For KTINGSKSPHRKAQNQQT, the “Fold enrichment over TTM-001” value was 2.696 fold.
For KTINGSKSPHRLAQNQQT, the “Fold enrichment over TTM-001” value was 3.073 fold.
In the case of KTINGSKSPHRTAQNQQT, the “Fold enrichment over TTM-001” value is reported as 2.950 fold.
KTINGSLSPHCLAQNQQT was tested, and the “Fold enrichment over TTM-001” value was 2.577 fold.
KTINGSLSPHIYAQNQQT was tested, and the “Fold enrichment over TTM-001” value was 2.536 fold.
In the case of KTINGSLSPHLCAQNQQT, the “Fold enrichment over TTM-001” value is reported as 2.775 fold.
KTINGSLSPHLFAQNQQT was tested, and the “Fold enrichment over TTM-001” value was 2.285 fold.
With KTINGSLSPHRRAQNQQT the “Fold enrichment over TTM-001” value was 2.717 fold.
In the case of KTINGSLSPHSCAQNQQT, the “Fold enrichment over TTM-001” value is reported as 3.268 fold.
For KTINGSLSPHSWAQNQQT, the “Fold enrichment over TTM-001” value was 2.885 fold.
With KTINGSLSPHTWAQNQQT the “Fold enrichment over TTM-001” value was 2.115 fold.
KTINGSLSPHYMAQNQQT was tested, and the “Fold enrichment over TTM-001” value was 2.015 fold.
For KTINGSMSPHLYAQNQQT, the “Fold enrichment over TTM-001” value was 2.354 fold.
For KTINGSMSPHRKAQNQQT, the “Fold enrichment over TTM-001” value was 2.251 fold.
For KTINGSMSPHRRAQNQQT, the “Fold enrichment over TTM-001” value was 2.028 fold.
KTINGSNSPHRKAQNQQT was tested, and the “Fold enrichment over TTM-001” value was 2.218 fold.
KTINGSPSPHLFAQNQQT was tested, and the “Fold enrichment over TTM-001” value was 2.238 fold.
KTINGSPSPHRKAQNQQT was tested, and the “Fold enrichment over TTM-001” value was 2.430 fold.
KTINGSPSPHRRAQNQQT was tested, and the “Fold enrichment over TTM-001” value was 3.216 fold.
In the case of KTINGSPSPHYLAQNQQT, the “Fold enrichment over TTM-001” value is reported as 2.391 fold.
In the case of “KTINGSRSPHARAQNQQT (peptide inserted in AAV capsid)”, the “Fold enrichment over TTM-001” value is reported as 2.745 fold.
In the case of “KTINGSRSPHCSAQNQQT (peptide inserted in AAV capsid)”, the “Fold enrichment over TTM-001” value is reported as 2.426 fold.
For “KTINGSRSPHFKAQNQQT (peptide inserted in AAV capsid)”, the “Fold enrichment over TTM-001” value was 2.277 fold.
“KTINGSRSPHIRAQNQQT (peptide inserted in AAV capsid)” was tested, and the “Fold enrichment over TTM-001” value was 2.356 fold.
“KTINGSRSPHLFAQNQQT (peptide inserted in AAV capsid)” was tested, and the “Fold enrichment over TTM-001” value was 3.601 fold.
With “KTINGSRSPHLRAQNQQT (peptide inserted in AAV capsid)” the “Fold enrichment over TTM-001” value was 3.410 fold.
In the case of “KTINGSRSPHRLAQNQQT (peptide inserted in AAV capsid)”, the “Fold enrichment over TTM-001” value is reported as 2.698 fold.
With “KTINGSRSPHRPAQNQQT (peptide inserted in AAV capsid)” the “Fold enrichment over TTM-001” value was 2.061 fold.
In the case of “KTINGSRSPHRRAQNQQT (peptide inserted in AAV capsid)”, the “Fold enrichment over TTM-001” value is reported as 2.615 fold.
With “KTINGSRSPHRSAQNQQT (peptide inserted in AAV capsid)” the “Fold enrichment over TTM-001” value was 2.536 fold.
With “KTINGSRSPHSKAQNRQT (peptide inserted in AAV capsid)” the “Fold enrichment over TTM-001” value was 2.155 fold.
With “KTINGSRSPHSWAQNQQT (peptide inserted in AAV capsid)” the “Fold enrichment over TTM-001” value was 2.559 fold.
With “KTINGSRSPHTRAQNQQT (peptide inserted in AAV capsid)” the “Fold enrichment over TTM-001” value was 3.989 fold.
With “KTINGSRSPHVRAQNQQT (peptide inserted in AAV capsid)” the “Fold enrichment over TTM-001” value was 2.412 fold.
“KTINGSRSPHYKAQNQQT (peptide inserted in AAV capsid)” was tested, and the “Fold enrichment over TTM-001” value was 2.879 fold.
For “KTINGSSSPHCLAQNQQT (peptide inserted in AAV capsid)”, the “Fold enrichment over TTM-001” value was 2.074 fold.
For “KTINGSSSPHCTAQNQQT (peptide inserted in AAV capsid)”, the “Fold enrichment over TTM-001” value was 5.607 fold.
For “KTINGSSSPHLCAQNQQT (peptide inserted in AAV capsid)”, the “Fold enrichment over TTM-001” value was 3.402 fold.
For “KTINGSSSPHLWAQNQQT (peptide inserted in AAV capsid)”, the “Fold enrichment over TTM-001” value was 2.605 fold.
With “KTINGSSSPHSWAQNQQT (peptide inserted in AAV capsid)” the “Fold enrichment over TTM-001” value was 2.119 fold.
For “KTINGSSSPHWLAQNQQT (peptide inserted in AAV capsid)”, the “Fold enrichment over TTM-001” value was 2.490 fold.
With “KTINGSSSPHWVAQNQQT (peptide inserted in AAV capsid)” the “Fold enrichment over TTM-001” value was 3.277 fold.
For “KTINGSTSPHLFAQNQQT (peptide inserted in AAV capsid)”, the “Fold enrichment over TTM-001” value was 2.041 fold.
“KTINGSTSPHRRAQNQQT (peptide inserted in AAV capsid)” was tested, and the “Fold enrichment over TTM-001” value was 3.089 fold.
“KTINGSTSPHWSAQNQQT (peptide inserted in AAV capsid)” was tested, and the “Fold enrichment over TTM-001” value was 2.043 fold.
With “KTINGSTSPHYLAQNQQT (peptide inserted in AAV capsid)” the “Fold enrichment over TTM-001” value was 2.665 fold.
